Measurements taken from US9243281B2, “Neuroprotective chemicals and methods for identifying and using same” (Board of Regents of The University of Texas System, priority 2013, dated 2016).

What was measured:
p70 (NAMPT) = target: T1, p70 (NAMPT) (Homo sapiens, UniProt P43490); test: binding competition for photo-crosslinking of P7C3-S326 to p70 in H2122 cells; settings: 0.3 μM P7C3-S326 plus 5 μM competitor, p70 band intensity, P7C3-S326 alone compared with plus competitor, vehicle 1.0
T1 construct: endogenous in cells; host or cells: H2122 lung cancer cells
Method: Cultured cells were co-exposed to P7C3-S326 (0.3 uM) and the individual P7C3 variants (5 uM), exposed to UV light, lysed, clicked to a fluorescent dye and run on SDS gels (FIG. 11).
P7C3-S326 was diluted to 0.3 μM in culture medium to treat H2122 cells. After incubation at 37° C. for 2 hours, H2122 cells were irradiated for 15 minutes under 306 nm ultraviolet light in a Stratalinker 2400 (Stratagene). Cells were then harvested by dissolving in 1% SDS lysis buffer 50 mM HEPES, pH 8.0, 2 mM MgCl2, 10 mM KCl, 1% SDS, 50 units/ml of Benzonase (Sigma), supplemented with Sigmafast protease inhibitor (Sigma).
The reaction was incubated at room temperature with constant agitation at 1,000 rpm on a thermomixer (Eppendorf) for 1 hour. Samples were then mixed with SDS sample loading buffer and loaded on an 8% SDS-PAGE gel, separated, and imaged using a Typhoon imager (filter settings: excitation 533 nm, emission 555 nm, and high sensitivity).
H2122 cells were incubated with the P7C3-S326 (0.3 μM) in the absence or presence of P7C3 analogs for 2 hours following by UV crosslinking. […] The samples were run on SDS-PAGE gels scanned using a Typhoon Imager. The p70 band intensity was analyzed and quantified by Image J, and the relative intensity in each assay was normalized to that of the DMSO control.

[1] = system: hippocampal neurogenesis (Dentate Gyrus); test: in vivo neurogenesis assay (BrdU+ cells in dentate gyrus); set-up: species or system mice
From the text: The screen was simple in concept. With help from chemists in the Department of Biochemistry at UTSWMC, we selected 1,000 druglike chemicals from the 250,000 compounds in our high throughput screening center. The compounds were selected to preserve representative chemical diversity of the entire library. They were further selected to enhance the representation of chiral molecules, and to avoid untoward chemical properties such as reactive moieties. The 1,000 molecules were randomly pooled into groups of ten, and each pool was administered directly into the left ventricle of two adult mice. Intracranial delivery was facilitated by stereotactic positioning of a canula fed directly by an Alzet mini-pump containing the mixture of ten chemicals. The drug mixture was administered over a week-long period at concentrations anticipated to deliver mid-nanomolar levels of the ten test compounds. Daily injections of the thymidine analog, bromodeoxyuridine (BrdU), were coadministered in order to monitor the formation of new hippocampal nerve cells. Following compound administration, animals were sacrificed such that brain tissue could be recovered, sectioned and stained with antibodies to BrdU. […]

[2] = living mice, vehicle (DMSO) 7.3

T1 sequence (P43490 whole entry): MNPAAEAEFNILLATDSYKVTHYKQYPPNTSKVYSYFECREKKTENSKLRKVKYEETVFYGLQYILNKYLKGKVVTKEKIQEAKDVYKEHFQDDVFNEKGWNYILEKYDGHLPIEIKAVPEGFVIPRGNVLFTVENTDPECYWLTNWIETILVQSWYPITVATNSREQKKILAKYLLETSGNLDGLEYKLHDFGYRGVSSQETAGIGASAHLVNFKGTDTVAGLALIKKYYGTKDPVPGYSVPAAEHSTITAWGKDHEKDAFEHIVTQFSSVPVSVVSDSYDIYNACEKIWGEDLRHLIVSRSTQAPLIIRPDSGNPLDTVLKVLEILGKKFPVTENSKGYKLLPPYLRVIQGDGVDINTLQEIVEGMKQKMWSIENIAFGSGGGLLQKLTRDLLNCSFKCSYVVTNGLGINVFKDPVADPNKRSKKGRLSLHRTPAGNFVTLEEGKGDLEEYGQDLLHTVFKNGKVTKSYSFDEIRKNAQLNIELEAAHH

OC(CNc1cccc2ccccc12)Cn1c2ccc(Cl)cc2c2cc(Cl)ccc21 (centres unmarked) [S184]
Binding competition (p70 (NAMPT)): 2.5 | Neurogenesis # BrdU+ Cells (X10E06)/mm3 Dentate Gyrus [1, 2]: 6.7 (X10E06)/mm3

Brc1ccc2[nH]c3ccccc3c2c1 [S236]
Binding competition (p70 (NAMPT)): 1.7 | Neurogenesis # BrdU+ Cells (X10E06)/mm3 Dentate Gyrus [1, 2]: 12.3 (X10E06)/mm3

CC(C)(C)NCC(O)CN1c2ccccc2CCc2ccccc21 (centres unmarked) [S145]
Binding competition (p70 (NAMPT)): 2.6 | Neurogenesis # BrdU+ Cells (X10E06)/mm3 Dentate Gyrus [1, 2]: 12.5 (X10E06)/mm3

OC(CN1c2ccccc2CCc2ccccc21)Cn1c2ccccc2c2ccccc21 (centres unmarked) [S133]
Binding competition (p70 (NAMPT)): 1.2 | Neurogenesis # BrdU+ Cells (X10E06)/mm3 Dentate Gyrus [1, 2]: 10.1 (X10E06)/mm3

CN(C)CCCN1c2ccccc2Sc2ccc(Cl)cc21 [S121, CPZ, reference compound]
Binding competition (p70 (NAMPT)): 2.3 | Neurogenesis # BrdU+ Cells (X10E06)/mm3 Dentate Gyrus [1, 2]: 11.1 (X10E06)/mm3

COc1ccc([C@H](CN(C)C)C2(O)CCCCC2)cc1 [S124, Effexor, reference compound]
Binding competition (p70 (NAMPT)): 1.1 | Neurogenesis # BrdU+ Cells (X10E06)/mm3 Dentate Gyrus [1, 2]: 8.9 (X10E06)/mm3

CCOC(=O)C1=C[C@]2(CC)CCCN3CCc4c(n1c1ccccc41)[C@@H]32 [S199]
Binding competition (p70 (NAMPT)): 1.1 | Neurogenesis # BrdU+ Cells (X10E06)/mm3 Dentate Gyrus [1, 2]: 13.3 (X10E06)/mm3

CNCCCC1c2ccccc2C=Cc2ccccc21.Cl [S90, Protriptyline, reference compound]
Binding competition (p70 (NAMPT)): 1.4 | Neurogenesis # BrdU+ Cells (X10E06)/mm3 Dentate Gyrus [1, 2]: 11.1 (X10E06)/mm3

COc1cccc(NCC(O)Cn2c3ccc(Br)cc3c3cc(N=[N+]=[N-])ccc32)c1 (centres unmarked) [S47]
Binding competition (p70 (NAMPT)): 5.5 | Neurogenesis # BrdU+ Cells (X10E06)/mm3 Dentate Gyrus [1, 2]: 10.1 (X10E06)/mm3

O=C(O)c1cc2c3ccccc3n(CC(O)COc3ccccc3)c2cn1 (centres unmarked) [S172]
Binding competition (p70 (NAMPT)): 1.1 | Neurogenesis # BrdU+ Cells (X10E06)/mm3 Dentate Gyrus [1, 2]: 14.2 (X10E06)/mm3

CCOC(=O)c1cc2c(cn1)[nH]c1ccc(Br)cc12 [S205]
Binding competition (p70 (NAMPT)): 2.5 | Neurogenesis # BrdU+ Cells (X10E06)/mm3 Dentate Gyrus [1, 2]: 14.6 (X10E06)/mm3

N[C@@H]1C[C@H]1c1ccccc1 [S118, Parnate, reference compound]
Binding competition (p70 (NAMPT)): 1.3 | Neurogenesis # BrdU+ Cells (X10E06)/mm3 Dentate Gyrus ([1]; mouse, in vivo): 8.3 (X10E06)/mm3

OCCn1c2ccc(Br)cc2c2cc(Br)ccc21 [S171]
Binding competition (p70 (NAMPT)): 3.2 | Neurogenesis # BrdU+ Cells (X10E06)/mm3 Dentate Gyrus [1, 2]: 13.1 (X10E06)/mm3

COc1cccc(NC(=O)C(O)Cn2c3ccc(Br)cc3c3cc(Br)ccc32)c1 (centres unmarked) [S31]
Binding competition (p70 (NAMPT)): 6.2 | Neurogenesis # BrdU+ Cells (X10E06)/mm3 Dentate Gyrus [1, 2]: 10.4 (X10E06)/mm3

CCOC(=O)c1cc2c3cc(Br)ccc3n(CC(O)COc3ccccc3)c2cn1 (centres unmarked) [S174]
Binding competition (p70 (NAMPT)): 1.8 | Neurogenesis # BrdU+ Cells (X10E06)/mm3 Dentate Gyrus [1, 2]: 9.3 (X10E06)/mm3

NCC(O)Cn1c2ccc(Br)cc2c2cc(Br)ccc21 (centres unmarked) [S20]
Binding competition (p70 (NAMPT)): 1.3 | Neurogenesis # BrdU+ Cells (X10E06)/mm3 Dentate Gyrus [1, 2]: 12.7 (X10E06)/mm3

COc1cccc(NCC(C)(O)Cn2c3ccc(Br)cc3c3cc(Br)ccc32)c1 (centres unmarked) [S54]
Binding competition (p70 (NAMPT)): 3.8 | Neurogenesis # BrdU+ Cells (X10E06)/mm3 Dentate Gyrus [1, 2]: 16.7 (X10E06)/mm3

O[C@@H](COc1ccccc1)Cn1c2ccc(Br)cc2c2cc(Br)ccc21 [S40]
Binding competition (p70 (NAMPT)): 2.8 | Neurogenesis # BrdU+ Cells (X10E06)/mm3 Dentate Gyrus [1, 2]: 8.1 (X10E06)/mm3

O=C(O)CCc1c[nH]c2ccccc12 [S242]
Binding competition (p70 (NAMPT)): 1.2 | Neurogenesis # BrdU+ Cells (X10E06)/mm3 Dentate Gyrus [1, 2]: 10.8 (X10E06)/mm3

OC(CNc1ccccn1)Cn1c2ccc(Br)cc2c2cc(Br)ccc21 (centres unmarked) [S38]
Binding competition (p70 (NAMPT)): 4.2 | Neurogenesis # BrdU+ Cells (X10E06)/mm3 Dentate Gyrus [1, 2]: 13.7 (X10E06)/mm3

COc1cccc(SCC(O)Cn2c3ccc(Br)cc3c3cc(Br)ccc32)c1 (centres unmarked) [S77]
Binding competition (p70 (NAMPT)): 3.3 | Neurogenesis # BrdU+ Cells (X10E06)/mm3 Dentate Gyrus [1, 2]: 12.0 (X10E06)/mm3

OC(COc1ccccc1)Cn1c2ccncc2c2cc(Br)ccc21 (centres unmarked) [S183]
Binding competition (p70 (NAMPT)): 4.0 | Neurogenesis # BrdU+ Cells (X10E06)/mm3 Dentate Gyrus [1, 2]: 7.7 (X10E06)/mm3

OC(CCc1ccccc1)Cn1c2ccc(Br)cc2c2cc(Br)ccc21 (centres unmarked) [S21]
Binding competition (p70 (NAMPT)): 2.3 | Neurogenesis # BrdU+ Cells (X10E06)/mm3 Dentate Gyrus [1, 2]: 8.8 (X10E06)/mm3

CN1CCN2c3ncccc3Cc3ccccc3C2C1 (centres unmarked) [S126, Remeron, reference compound]
Binding competition (p70 (NAMPT)): 1.3 | Neurogenesis # BrdU+ Cells (X10E06)/mm3 Dentate Gyrus [1, 2]: 8.8 (X10E06)/mm3

OC(Cn1c2ccc(Br)cc2c2cc(Br)ccc21)Cn1c2ccc(Br)cc2c2cc(Br)ccc21 [S34]
Binding competition (p70 (NAMPT)): 1.0 | Neurogenesis # BrdU+ Cells (X10E06)/mm3 Dentate Gyrus [1, 2]: 7.6 (X10E06)/mm3

CN(C)C[C@@H](O)CN1c2ccccc2CCc2ccccc21 [S182]
Binding competition (p70 (NAMPT)): 1.1 | Neurogenesis # BrdU+ Cells (X10E06)/mm3 Dentate Gyrus [1, 2]: 6.8 (X10E06)/mm3

O=C(O)c1ccc2[nH]c3ccc(Br)cc3c2c1 [S225]
Binding competition (p70 (NAMPT)): 2.2 | Neurogenesis # BrdU+ Cells (X10E06)/mm3 Dentate Gyrus [1, 2]: 15.2 (X10E06)/mm3

COc1ccc(SCC(F)Cn2c3ccc(Br)cc3c3cc(Br)ccc32)cc1 (centres unmarked) [S80]
Binding competition (p70 (NAMPT)): 0.9 | Neurogenesis # BrdU+ Cells (X10E06)/mm3 Dentate Gyrus [1, 2]: 13.0 (X10E06)/mm3

Cc1ccc2[nH]c3ccc(C)cc3c2c1 [S237]
Binding competition (p70 (NAMPT)): 1.5 | Neurogenesis # BrdU+ Cells (X10E06)/mm3 Dentate Gyrus [1, 2]: 11.8 (X10E06)/mm3

CCOc1cccc(NCC(O)Cn2c3ccc(Br)cc3c3cc(Br)ccc32)c1 (centres unmarked) [S24]
Binding competition (p70 (NAMPT)): 3.1 | Neurogenesis # BrdU+ Cells (X10E06)/mm3 Dentate Gyrus [1, 2]: 8.0 (X10E06)/mm3

CN(C)C(=O)Cn1c2ccc(Br)cc2c2cc(Br)ccc21 [S215]
Binding competition (p70 (NAMPT)): 3.6 | Neurogenesis # BrdU+ Cells (X10E06)/mm3 Dentate Gyrus [1, 2]: 8.3 (X10E06)/mm3

O=C(O)c1cc2c(cn1)[nH]c1ccc(Br)cc12 [S206]
Binding competition (p70 (NAMPT)): 1.4 | Neurogenesis # BrdU+ Cells (X10E06)/mm3 Dentate Gyrus [1, 2]: 14.8 (X10E06)/mm3

CC(C)(C)OC(=O)CCOCCOCCOCCOc1cccc(NCC(O)Cn2c3ccc(Br)cc3c3cc(Br)ccc32)c1 (centres unmarked) [S157]
Binding competition (p70 (NAMPT)): 1.5 | Neurogenesis # BrdU+ Cells (X10E06)/mm3 Dentate Gyrus [1, 2]: 10.2 (X10E06)/mm3

OC(CNc1ccncc1)Cn1c2ccc(Br)cc2c2cc(Br)ccc21 (centres unmarked) [S45]
Binding competition (p70 (NAMPT)): 1.2 | Neurogenesis # BrdU+ Cells (X10E06)/mm3 Dentate Gyrus [1, 2]: 8.0 (X10E06)/mm3

CC(C)NCC(O)CN1c2ccccc2CCc2ccccc21 (centres unmarked) [S144]
Binding competition (p70 (NAMPT)): 1.4 | Neurogenesis # BrdU+ Cells (X10E06)/mm3 Dentate Gyrus [1, 2]: 9.1 (X10E06)/mm3

CC(O)(COc1ccccc1)Cn1c2ccc(C#N)cc2c2cc(C#N)ccc21 (centres unmarked) [S177]
Binding competition (p70 (NAMPT)): 4.3 | Neurogenesis # BrdU+ Cells (X10E06)/mm3 Dentate Gyrus [1, 2]: 13.9 (X10E06)/mm3

CNCC(F)CN1c2ccccc2CCc2ccccc21 (centres unmarked) [S152]
Binding competition (p70 (NAMPT)): 1.6 | Neurogenesis # BrdU+ Cells (X10E06)/mm3 Dentate Gyrus [1, 2]: 13.4 (X10E06)/mm3

OC(CCNc1ccccc1)Cn1c2ccc(Br)cc2c2cc(Br)ccc21 (centres unmarked) [S32]
Binding competition (p70 (NAMPT)): 2.7 | Neurogenesis # BrdU+ Cells (X10E06)/mm3 Dentate Gyrus [1, 2]: 13.8 (X10E06)/mm3

OC(COc1ccccc1)Cn1c2c(c3cc(Br)ccc31)CNCC2 (centres unmarked) [S105]
Binding competition (p70 (NAMPT)): 1.2 | Neurogenesis # BrdU+ Cells (X10E06)/mm3 Dentate Gyrus [1, 2]: 10.8 (X10E06)/mm3

OC(COC1CCCCC1)Cn1c2ccc(Br)cc2c2cc(Br)ccc21 (centres unmarked) [S178]
Binding competition (p70 (NAMPT)): 1.7 | Neurogenesis # BrdU+ Cells (X10E06)/mm3 Dentate Gyrus [1, 2]: 13.8 (X10E06)/mm3

O=S(=O)(C[C@@H](O)Cn1c2ccc(Br)cc2c2cc(Br)ccc21)c1ccccc1 [S50]
Binding competition (p70 (NAMPT)): 3.8 | Neurogenesis # BrdU+ Cells (X10E06)/mm3 Dentate Gyrus [1, 2]: 16.2 (X10E06)/mm3

COc1cccc(N(CC(O)Cn2c3ccc(Br)cc3c3cc(Br)ccc32)C(C)=O)c1 (centres unmarked) [S9]
Binding competition (p70 (NAMPT)): 2.0 | Neurogenesis # BrdU+ Cells (X10E06)/mm3 Dentate Gyrus [1, 2]: 11.9 (X10E06)/mm3

[N-]=[N+]=Nc1cccc(NCC(O)Cn2c3ccc(Br)cc3c3cc(Br)ccc32)c1 (centres unmarked) [S36]
Binding competition (p70 (NAMPT)): 3.1 | Neurogenesis # BrdU+ Cells (X10E06)/mm3 Dentate Gyrus [1, 2]: 8.9 (X10E06)/mm3
